{"source": "patent US4205080A", "about": "“2,3-Dihydro benzofuran carboxamides” (Shell Oil Company, priority 1979, dated 1980)", "data": [{"system": "swine adipose tissue", "assay": "inhibition of lipogenesis (lipid synthesis from radioactive glucose) in slices of swine adipose tissue", "assay_type": "cell-based", "details": "100 micrograms per milliliter test compound; 37° C., 2 hours; glucose-U^14 C; 300 microunits of insulin; 5% DMSO; triplicate", "from_the_text": "The manner in which they cause this effect is not known with certainty; it is believed that they interfere with the synthesis of fatty acids in the tissues. Their effectiveness for this purpose has been ascertained by immersing samples of swine adipose tissue in a liquid medium containing radioactive glucose and the test chemical for a period of time, then isolating the lipid from the treated tissue and determining the up-take of the radioactive carbon by means of scintillation counting techniques. These tests were conducted in swine adipose tissue because in swine, the primary site of lipogenesis--i.e., fatty acid synthesis--appears to be adipose tissue.\nDescribed in more detail, the tests were conducted according to the following general procedure:\n150 milligrams of slices of swine adipose tissue were incubated at 37° C. for 2 hours with shaking in 3 milliliters of Krebs-Ringer bicarbonate solution containing one-half of the normal calcium ion concentration, 60 micromoles of glucose, 0.5 micro-Curie of glucose-U^14 C, and 300 microunits of insulin, and 5% dimethyl sulfoxide (DMSO). The test compound was added as a solution or suspension in DMSO and was present as a concentration of 100 micrograms per milliliter of incubation mixture.\nThe incubation was terminated by addition of 0.25 milliliter of 1 N sulfuric acid. The resulting mixture was extracted with a total of 25 milliliters of chloroform:methanol (2:1, v/v). The extracts were washed according to Folch et al. (J. Biol. Chem., 226, 497-509, (1957)), air dried, and counted in a liquid scintillation counter with 15 milliliters of counting fluid (two parts toluene containing 0.4% w/v New England Nuclear Omnifluor: 1 part Triton X-100). The tests were conducted in triplicate and were accompanied by control tests in which all ingredients,proportions and conditions were the same except that no test compound was included. From the data obtained were calculated the percent inhibition of lipid synthesis by the test compound. The data obtained are reported as the percent inhibition of lipogenesis compared to the results obtained in the control tests wherein only the test compound was omitted.", "units": {"Percent Inhibition (of lipogenesis compared to control tests)": "%"}, "values": [{"smiles": "C=CCNC(=O)C1Cc2cc(-c3ccccc3)ccc2O1", "note": "(stereo not shown) [Compound 1, 2,3-dihydro-5-phenyl-N-(2-propenyl)-2-benzofurancarboxamide]", "Percent Inhibition (of lipogenesis compared to control tests)": 59}, {"smiles": "C=CCNC(=O)C1Cc2cc(C(C)CC)ccc2O1", "note": "(stereo not shown) [Compound 2]", "Percent Inhibition (of lipogenesis compared to control tests)": 66}, {"smiles": "C=CCNC(=O)C1Cc2cc(C3CCCCC3)ccc2O1", "note": "(stereo not shown) [Compound 3]", "Percent Inhibition (of lipogenesis compared to control tests)": 43}, {"smiles": "C=CCNC(=O)C1Cc2cc(Cc3ccccc3)ccc2O1", "note": "(stereo not shown) [Compound 4]", "Percent Inhibition (of lipogenesis compared to control tests)": 64}, {"smiles": "C=CCNC(=O)C1Cc2c(Oc3ccccc3)cccc2O1", "note": "(stereo not shown) [Compound 5]", "Percent Inhibition (of lipogenesis compared to control tests)": 77}, {"smiles": "C=CCNC(=O)C1Cc2cc(-c3ccc(C(C)O)cc3)ccc2O1", "note": "(stereo not shown) [Compound 6, 2,3-Dihydro-5-(4-(1-hydroxyethyl)phenyl)-N-(2-propenyl)-2-benzofurancarboxamide]", "Percent Inhibition (of lipogenesis compared to control tests)": 40}, {"smiles": "C=CCNC(=O)C1Cc2cc(-c3ccc(NC(C)=O)cc3)ccc2O1", "note": "(stereo not shown) [Compound 7, 5-(4-(Acetylamino)phenyl)-2,3-dihydro-N-(2-propenyl)-2-benzofurancarboxamide]", "Percent Inhibition (of lipogenesis compared to control tests)": 76}]}]}
